In general, Papp A→B refers to the apparent permeability from the apical to the basolateral side of a cell layer. A higher Papp A→B goes with fast passage. For orientation: Papp B→A means how fast a substance crosses the layer from the basolateral side. The half-life is the time needed for the level to fall by half in the phase considered. A lower half-life goes with rapid decline. For orientation: clearance means the volume of plasma or blood freed of the substance per unit of time. Low readings indicate a low capacity for elimination, high ones a high capacity for elimination. In general, Cmax refers to the maximum level reached in the sampled fluid or tissue. In general, Tmax refers to the time from dosing to the highest level. As usually defined, the bioavailability is dose-corrected exposure relative to a reference, in per cent. Low values mean poor availability, high ones good availability.

This is an account of results in ChEMBL document CHEMBL1147820, “Enhanced pharmacokinetic properties of 1,4-benzodiazepine-2,5-dione antagonists of the HDM2-p53 protein-protein interaction through structure-based drug design” (Bioorg Med Chem Lett, 2006).

SMILES strings stand for the structures.

Series [1] is described as follows: in vitro. The following applies: human, Caco-2.
A short description of series [2]: in vitro. The following applies: human, Caco-2. This is another data set of the same source.
A short description of series [3]: Half life in mouse at 5 mg/kg, iv. The following applies: in vivo. On the set-up: dose 5 mg/kg, route intravenous. Type of series: ADME, organism-based.
Series [4] can be described thus: Clearance in mouse at 5 mg/kg, iv. The series is classed as ADME, organism-based. The following applies: in vivo. Also noted: dose 5 mg/kg, route intravenous.
The nature of series [5]: Volume of distribution in mouse at 5 mg/kg, iv. Type of series: ADME, organism-based. On the set-up: dose 5 mg/kg, route intravenous. The following applies: in vivo, read-out: Vdss.
The nature of series [6]: Cmax in mouse at 40 mg/kg, po. The following applies: in vivo. On the set-up: dose 40 mg/kg, route oral. The series is classed as ADME, organism-based.
Series [7] is described as follows: Tmax in mouse at 40 mg/kg, po. Type of series: ADME, organism-based. Also noted: dose 40 mg/kg, route oral. The following applies: in vivo.
Series [8] can be described thus: Half life in mouse at 40 mg/kg, po. The series is classed as ADME, organism-based. On the set-up: dose 40 mg/kg, route oral. The following applies: in vivo.
Series [9] is described as follows: Bioavailability in mouse. The series is classed as ADME, organism-based. The following applies: in vivo.

Consider `C#Cc1ccc2c(c1)C(=O)N([C@H](C)c1ccc(Cl)cc1)[C@@H](c1ccc(Cl)cc1)C(=O)N2CCCCC(=O)O`, for which the Papp A→B in [1] stood at 20.9 ×10⁻⁶ cm/s. Also, the basolateral-to-apical permeability (Papp B→A) in series [2] was found to be 16.1 ×10⁻⁶ cm/s.
The matching figures for `CC#Cc1ccc2c(c1)C(=O)N([C@H](C)c1ccc(Cl)cc1)[C@@H](c1ccc(Cl)cc1)C(=O)N2CCCCC(=O)O`: 19.9 ×10⁻⁶ cm/s and 9.1 ×10⁻⁶ cm/s.
Regarding `C[C@H](c1ccc(Cl)cc1)N1C(=O)c2cc(I)ccc2N(CCCCC(=O)O)C(=O)[C@@H]1c1ccc(Cl)cc1`, the half-life in series [3] is 3.1 h; in series [8] it was 2.5 h. The compound further came in with a clearance in [4] of 13.2 mL/min/kg. Besides, in [5], the Vd was determined as 3 L/kg. The same compound yielded a Cmax in [6] of 6.3 µM. Also, the Tmax in series [7] turned out to be 6 h. This compound had a bioavailability in series [9] of 100%. The same compound registered a Papp A→B in series [1] of 7.34 ×10⁻⁶ cm/s. Also, the basolateral-to-apical permeability (Papp B→A) in series [2] was 13 ×10⁻⁶ cm/s.
